Results as given in ChEMBL document CHEMBL1201862, “PubChem BioAssay data set” (2004).
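Interpolation was linear, between the two tested concentrations surrounding the appropriate level; five concentrations were tested over 48 hours in 96-well plates. Abbreviation: GI50, concentration required for 50% inhibition of growth.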 Active and inactive are the calls of the source. Cut-off read from the data, not from the text of the source: active = GI50 up to about 1.1 µM and inactive = higher.

Assays:
Assay in all cases: DTP human tumour cell line panel, 48 h
M14 = tested on: M14
NCI-H460 = tested on: NCI-H460
SK-MEL-5 = tested on: SK-MEL-5
UACC-257 = tested on: UACC-257
UO-31 = tested on: UO-31
MOLT-4 = tested on: MOLT-4
T47D = tested on: T47D
DU-145 = tested on: DU-145
SK-MEL-2 = tested on: SK-MEL-2
SK-MEL-28 = tested on: SK-MEL-28
SNB-75 = tested on: SNB-75
SF-295 = tested on: SF-295
HOP-92 = tested on: HOP-92
OVCAR-3 = tested on: OVCAR-3
NCI-H522 = tested on: NCI-H522
KM12 = tested on: KM12
TK-10 = tested on: TK-10
HCC 2998 = tested on: HCC 2998
A498 = tested on: A498
MDA-N = tested on: MDA-N

| SMILES | GI50 (M14) | GI50 (NCI-H460) | GI50 (SK-MEL-5) | GI50 (UACC-257) | GI50 (UO-31) | GI50 (MOLT-4) | GI50 (T47D) | GI50 (DU-145) | GI50 (SK-MEL-2) | GI50 (SK-MEL-28) | GI50 (SNB-75) | GI50 (SF-295) | GI50 (HOP-92) | GI50 (OVCAR-3) | GI50 (NCI-H522) | GI50 (KM12) | GI50 (TK-10) | GI50 (HCC 2998) | GI50 (A498) | GI50 (MDA-N) |
| --- | --- | --- | --- | --- | --- | --- | --- | --- | --- | --- | --- | --- | --- | --- | --- | --- | --- | --- | --- | --- |
| CC[C@]1(Cc2ccc(OC)c(OC)c2)C=[N+]([O-])O[C@H](OC2CCCC2(c2ccccc2)c2ccccc2)[C@@H]1OC(C)=O (some centres undefined) | 4.59 µM (inactive) | 5.4 µM (inactive) | 3.55 µM (inactive) | 4.61 µM (inactive) | 3.12 µM (inactive) | 2.67 µM (inactive) | 2.96 µM (inactive) | 3.03 µM (inactive) | 4.62 µM (inactive) | 1.81 µM (inactive) | 2.82 µM (inactive) | 4.92 µM (inactive) | 3.21 µM (inactive) | 1.65 µM (inactive) | 2.83 µM (inactive) | 2.84 µM (inactive) | 3.02 µM (inactive) | 2.74 µM (inactive) | – | – |
| c1ccc2c(c1)ccc1cc3cc(NCCCCNc4ccc5nc6c(ccc7ccccc76)cc5c4)ccc3nc12 | 1.72 µM (inactive) | 0.231 µM (active) | 1.32 µM (inactive) | 1.72 µM (inactive) | 1.21 µM (inactive) | 0.184 µM (active) | 0.455 µM (active) | 1.29 µM (inactive) | 1.91 µM (inactive) | 2.1 µM (inactive) | 1.91 µM (inactive) | 1.38 µM (inactive) | 1.58 µM (inactive) | 1.99 µM (inactive) | 1.91 µM (inactive) | 0.236 µM (active) | 1.64 µM (inactive) | – | 1.17 µM (inactive) | – |
| COC(=O)/C=C1\C(CO[Si](C)(C)C(C)(C)C)OC(n2cc(C)c(=O)n(C)c2=O)C1O[Si](C)(C)C(C)(C)C (centres undefined) | > 100 µM (inactive) | – | 69.7 µM (inactive) | – | > 100 µM (inactive) | > 100 µM (inactive) | – | > 100 µM (inactive) | > 100 µM (inactive) | > 100 µM (inactive) | > 100 µM (inactive) | > 100 µM (inactive) | > 100 µM (inactive) | > 100 µM (inactive) | 78 µM (inactive) | > 100 µM (inactive) | > 100 µM (inactive) | – | > 100 µM (inactive) | > 100 µM (inactive) |
| O=C(Cc1ccccc1)N/N=C(/CCN1CCCC1)CC(c1ccccc1)c1c(O)c2ccccc2oc1=O (centres undefined) | > 100 µM (inactive) | – | > 100 µM (inactive) | 37.2 µM (inactive) | > 100 µM (inactive) | 46.6 µM (inactive) | – | > 100 µM (inactive) | > 100 µM (inactive) | > 100 µM (inactive) | > 100 µM (inactive) | – | 31.6 µM (inactive) | > 100 µM (inactive) | 59 µM (inactive) | > 100 µM (inactive) | > 100 µM (inactive) | 95.1 µM (inactive) | 28 µM (inactive) | > 100 µM (inactive) |
| [N-]=[N+]=Nc1ccc(NCCCCCC(=O)ON2C(=O)CCC2=O)c([N+](=O)[O-])c1 | 58.3 µM (inactive) | 61.7 µM (inactive) | 41.1 µM (inactive) | > 100 µM (inactive) | 46.3 µM (inactive) | 15.4 µM (inactive) | 62.1 µM (inactive) | > 100 µM (inactive) | 42.4 µM (inactive) | 74.1 µM (inactive) | 72.9 µM (inactive) | > 100 µM (inactive) | 10.3 µM (inactive) | 54.3 µM (inactive) | 39.3 µM (inactive) | 46.2 µM (inactive) | 42.1 µM (inactive) | – | – | – |
| CC1(C)CC(=O)C2=C(C1)NC(SCC(=O)O)=C(C#N)C2c1ccc(Br)cc1 (centres undefined) | > 100 µM (inactive) | > 100 µM (inactive) | > 100 µM (inactive) | > 100 µM (inactive) | 4.56 µM (inactive) | – | – | > 100 µM (inactive) | > 100 µM (inactive) | > 100 µM (inactive) | > 100 µM (inactive) | > 100 µM (inactive) | 27.4 µM (inactive) | > 100 µM (inactive) | 86.5 µM (inactive) | > 100 µM (inactive) | > 100 µM (inactive) | > 100 µM (inactive) | > 100 µM (inactive) | > 100 µM (inactive) |
